Assay results published in ChEMBL document CHEMBL3853265 (Medchemcomm, 2016).

Tests used:
[1] = biological target: T1, Solute carrier family 22 member 12 (Homo sapiens, UniProt Q96S37); assay: Inhibition of human C-terminal eGFP-tagged URAT1 long isoform expressed in CHO cells assessed as decrease in [14C]-uric acid uptake preincubated for 15 mins followed by [14C]-uric acid addition and incubated in dark for 3 hrs by scintillation counting method; type: cell-based
T1 sequence (Q96S37 whole entry): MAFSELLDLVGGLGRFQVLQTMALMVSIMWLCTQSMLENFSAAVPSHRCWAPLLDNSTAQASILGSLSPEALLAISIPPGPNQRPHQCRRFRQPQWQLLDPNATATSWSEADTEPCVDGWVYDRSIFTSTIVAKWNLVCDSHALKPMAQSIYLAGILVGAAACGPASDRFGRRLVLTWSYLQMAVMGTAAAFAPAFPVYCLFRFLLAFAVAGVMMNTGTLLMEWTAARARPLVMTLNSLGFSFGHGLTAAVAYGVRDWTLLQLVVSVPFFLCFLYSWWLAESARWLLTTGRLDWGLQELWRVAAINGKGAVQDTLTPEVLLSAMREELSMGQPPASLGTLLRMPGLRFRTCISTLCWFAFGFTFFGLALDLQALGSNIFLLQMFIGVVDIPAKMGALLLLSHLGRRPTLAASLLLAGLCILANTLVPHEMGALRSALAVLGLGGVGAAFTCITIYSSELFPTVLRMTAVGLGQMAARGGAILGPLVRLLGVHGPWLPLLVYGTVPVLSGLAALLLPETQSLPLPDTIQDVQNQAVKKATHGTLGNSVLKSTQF

[2] = biological target: T2, Solute carrier organic anion transporter family member 1B1 (Homo sapiens, UniProt Q9Y6L6); assay: Drug uptake assessed as human OATP1B1-mediated drug accumulation by cell-based assay relative to wild type protein; type: ADME
T2 sequence (Q9Y6L6 whole entry): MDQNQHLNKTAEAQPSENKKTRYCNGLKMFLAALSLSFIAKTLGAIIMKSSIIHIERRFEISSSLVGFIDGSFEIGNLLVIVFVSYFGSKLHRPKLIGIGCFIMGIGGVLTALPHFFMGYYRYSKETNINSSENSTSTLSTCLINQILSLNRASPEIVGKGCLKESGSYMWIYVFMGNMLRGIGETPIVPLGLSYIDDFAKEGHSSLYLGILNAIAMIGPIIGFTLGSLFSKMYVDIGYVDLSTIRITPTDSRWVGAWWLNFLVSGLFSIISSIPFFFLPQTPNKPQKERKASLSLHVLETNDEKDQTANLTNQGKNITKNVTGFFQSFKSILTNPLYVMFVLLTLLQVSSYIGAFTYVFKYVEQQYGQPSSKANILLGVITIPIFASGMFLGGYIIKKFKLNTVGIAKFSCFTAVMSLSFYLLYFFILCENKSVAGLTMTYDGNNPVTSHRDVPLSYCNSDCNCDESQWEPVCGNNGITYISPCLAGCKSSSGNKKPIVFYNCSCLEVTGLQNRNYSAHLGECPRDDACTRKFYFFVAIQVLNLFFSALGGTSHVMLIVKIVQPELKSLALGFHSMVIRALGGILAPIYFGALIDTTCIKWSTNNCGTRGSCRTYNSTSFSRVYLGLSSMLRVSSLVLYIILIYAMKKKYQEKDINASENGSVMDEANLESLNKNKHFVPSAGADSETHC

[3] = Fraction unbound in human plasma; type: ADME, cell-free
[4] = Renal clearance in rat at 1 mg/kg, iv and 3 mg/kg, po relative to GFR x fraction unbound; type: ADME, organism-based; details: in vivo
[5] = Renal clearance in dog at 0.363 mg/kg, iv and 0.737 mg/kg, po relative to GFR x fraction unbound; type: ADME, organism-based, Canis lupus familiaris; details: in vivo
[6] = Mutagenicity in […] by Ames test in presence of […]; type: toxicity
[7] = Unbound clearance in rat at 1 mg/kg, iv and 3 mg/kg, po; type: ADME, organism-based; details: in vivo
[8] = Half life in rat at 1 mg/kg, iv and 3 mg/kg, po; type: ADME, organism-based; details: in vivo
[9] = Intrinsic clearance in dog hepatocytes assessed per 10^6 cells; type: ADME, cell-based, Canis lupus familiaris, Hepatocyte
[10] = Plasma clearance in rat at 1 mg/kg, iv and 3 mg/kg, po; type: ADME, organism-based
[11] = Dissociation constant, pKa of the compound; type: physicochemical
[12] = biological target: T3, Organic anion transporter 3 (Homo sapiens, UniProt Q8TCC7); assay: Inhibition of OAT3 (unknown origin)
T3 sequence (Q8TCC7 whole entry): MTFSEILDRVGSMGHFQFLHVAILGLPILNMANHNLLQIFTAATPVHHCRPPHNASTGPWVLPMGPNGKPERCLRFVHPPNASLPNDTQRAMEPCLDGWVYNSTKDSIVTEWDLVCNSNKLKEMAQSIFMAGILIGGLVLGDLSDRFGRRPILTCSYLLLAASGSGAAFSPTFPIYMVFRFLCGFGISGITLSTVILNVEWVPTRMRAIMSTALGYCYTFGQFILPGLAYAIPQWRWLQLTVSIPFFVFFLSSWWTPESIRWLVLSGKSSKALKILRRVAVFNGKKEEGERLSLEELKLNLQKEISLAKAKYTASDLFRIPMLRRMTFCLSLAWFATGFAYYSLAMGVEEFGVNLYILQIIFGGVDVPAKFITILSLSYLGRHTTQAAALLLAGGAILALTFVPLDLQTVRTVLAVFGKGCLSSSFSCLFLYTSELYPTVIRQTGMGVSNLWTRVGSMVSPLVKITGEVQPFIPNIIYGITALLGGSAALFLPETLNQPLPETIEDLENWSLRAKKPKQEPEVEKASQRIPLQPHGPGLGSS

Rattus norvegicus = assay: Toxicity in po dosed Wistar Han rat assessed as drug tolerance administered for 14 days; type: organism-based; details: in vivo, 336 h
[13] = biological target: Sodium channel protein type 5 subunit alpha (Homo sapiens, UniProt Q14524); assay: Inhibition of human NaV1.5 expressed in HEK293 cells by patch clamp method; type: cell-based
[14] = Oral bioavailability in rat at 3 mg/kg; type: ADME, organism-based; details: in vivo
[15] = Fraction unbound in rat plasma; type: ADME, cell-free
[16] = Intrinsic clearance in rat hepatocytes assessed per 10^6 cells; type: ADME, cell-based, Hepatocyte

Sodium channel protein type 5 subunit alpha, sequence (Q14524 whole entry): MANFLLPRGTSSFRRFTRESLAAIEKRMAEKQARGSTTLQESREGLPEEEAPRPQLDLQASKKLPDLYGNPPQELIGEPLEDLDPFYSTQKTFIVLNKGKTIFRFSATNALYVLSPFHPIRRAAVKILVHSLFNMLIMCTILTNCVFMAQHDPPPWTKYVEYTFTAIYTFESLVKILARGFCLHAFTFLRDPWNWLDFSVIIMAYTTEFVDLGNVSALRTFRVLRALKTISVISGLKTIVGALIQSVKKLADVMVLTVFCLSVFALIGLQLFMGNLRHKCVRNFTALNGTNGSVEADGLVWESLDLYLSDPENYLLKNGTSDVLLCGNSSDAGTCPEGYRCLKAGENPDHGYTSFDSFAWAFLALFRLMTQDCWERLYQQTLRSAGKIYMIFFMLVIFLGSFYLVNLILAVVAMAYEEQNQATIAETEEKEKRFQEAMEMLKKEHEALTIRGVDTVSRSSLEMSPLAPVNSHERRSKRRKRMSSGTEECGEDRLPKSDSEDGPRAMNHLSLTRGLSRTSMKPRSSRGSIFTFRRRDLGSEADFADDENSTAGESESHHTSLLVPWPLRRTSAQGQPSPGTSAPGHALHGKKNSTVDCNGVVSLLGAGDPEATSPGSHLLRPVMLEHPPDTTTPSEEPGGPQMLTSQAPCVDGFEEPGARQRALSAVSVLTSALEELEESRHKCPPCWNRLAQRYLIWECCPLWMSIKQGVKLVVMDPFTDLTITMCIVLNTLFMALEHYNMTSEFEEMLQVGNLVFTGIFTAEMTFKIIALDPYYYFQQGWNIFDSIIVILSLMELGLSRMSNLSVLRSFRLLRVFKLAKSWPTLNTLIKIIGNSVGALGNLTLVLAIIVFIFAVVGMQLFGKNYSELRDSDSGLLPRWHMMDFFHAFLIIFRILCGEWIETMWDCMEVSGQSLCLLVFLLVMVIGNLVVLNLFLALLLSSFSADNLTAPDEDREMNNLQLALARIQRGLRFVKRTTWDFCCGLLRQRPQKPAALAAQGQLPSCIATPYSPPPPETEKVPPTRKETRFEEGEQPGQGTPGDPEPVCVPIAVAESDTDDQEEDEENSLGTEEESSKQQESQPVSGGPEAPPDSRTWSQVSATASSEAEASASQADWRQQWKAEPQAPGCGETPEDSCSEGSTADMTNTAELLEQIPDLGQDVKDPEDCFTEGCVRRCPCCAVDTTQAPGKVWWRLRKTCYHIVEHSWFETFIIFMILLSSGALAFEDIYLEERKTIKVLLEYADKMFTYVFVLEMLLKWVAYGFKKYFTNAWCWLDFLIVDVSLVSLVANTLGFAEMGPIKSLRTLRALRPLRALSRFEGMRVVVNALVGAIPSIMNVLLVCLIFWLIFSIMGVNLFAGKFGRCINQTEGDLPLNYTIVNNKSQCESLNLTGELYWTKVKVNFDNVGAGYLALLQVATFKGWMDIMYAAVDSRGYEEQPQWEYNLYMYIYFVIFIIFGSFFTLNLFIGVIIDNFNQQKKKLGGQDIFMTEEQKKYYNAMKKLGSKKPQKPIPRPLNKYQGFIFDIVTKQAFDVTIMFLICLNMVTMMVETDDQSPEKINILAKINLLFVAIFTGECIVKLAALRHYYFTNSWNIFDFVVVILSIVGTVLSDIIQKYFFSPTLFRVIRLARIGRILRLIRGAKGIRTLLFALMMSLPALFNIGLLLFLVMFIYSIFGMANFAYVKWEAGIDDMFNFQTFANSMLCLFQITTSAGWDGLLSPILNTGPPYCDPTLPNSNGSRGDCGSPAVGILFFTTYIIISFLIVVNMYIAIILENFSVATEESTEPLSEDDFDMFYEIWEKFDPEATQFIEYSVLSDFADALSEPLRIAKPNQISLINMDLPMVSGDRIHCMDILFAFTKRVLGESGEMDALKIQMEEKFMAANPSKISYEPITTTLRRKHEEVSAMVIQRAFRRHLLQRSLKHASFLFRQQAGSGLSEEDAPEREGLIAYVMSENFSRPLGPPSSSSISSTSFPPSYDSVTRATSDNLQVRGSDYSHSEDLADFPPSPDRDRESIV

| SMILES | IC50 [1] | fold change (FC) [2] | fraction unbound [3] | CL [4] | CL [5] | Activity [6] | CL free [7] | half-life [8] | CLH [9] | clearance [10] | pKa [11] | IC50 [12] | Activity (Rattus norvegicus) | IC50 [13] | bioavailability [14] | fraction unbound [15] | CLH [16] |
| --- | --- | --- | --- | --- | --- | --- | --- | --- | --- | --- | --- | --- | --- | --- | --- | --- | --- |
| O=S(=O)(Nc1ccc(C(F)(F)F)nc1)c1ccccc1C(F)(F)F | 0.042 µM | 0.902 | 0.0084 | < 2% | < 2% | Non-Toxic | 41 mL/min/kg | 27.3 h | < 6 µL/min/1e6 cells | 0.18 mL/min/kg | 5.1 | 3.3 µM | <= 100 mg kg-1 | > 100 µM | 98% | 0.0045 | < 6 µL/min/1e6 cells |
| O=S(=O)(Nc1cncc(C(F)(F)F)c1)c1ccccc1C(F)(F)F | 0.036 µM | 0.573 | 0.0034 | < 2% | < 2% | Non-Toxic | 324 mL/min/kg | 3.3 h | < 6 µL/min/1e6 cells | 0.55 mL/min/kg | 5.2 | 3.4 µM | <= 100 mg/kg/day | > 30 µM | 150% | 0.0017 | 7 µL/min/1e6 cells |
